# How the values were obtained:
# [1] = tested on: Human immunodeficiency virus 1; assay: Antiviral activity against R5 tropic Human immunodeficiency virus 1 BAL infected in human PBMC cells assessed as reduction in viral replication by p24 detection based ELISA; type: functional, organism-based
# [2] = Cytotoxic activity against human PBMC assessed as reduction in cell viability; type: cell-based
# [3] = Plasma protein binding in human plasma at 1 uM after 5 hrs by LC-MS/MS analysis; type: ADME, cell-free; settings: read-out: PPB (converted)
# [4] = Half life in rat at 10 umol/kg, iv; type: ADME, organism-based; settings: in vivo, 10 umol/kg
# [5] = Volume of distribution at steady state in rat at 10 umol/kg, iv; type: ADME, organism-based; settings: in vivo, 10 umol/kg, read-out: Vdss
# [6] = Clearance in rat at 10 umol/kg, iv; type: ADME, organism-based; settings: in vivo
# [7] = AUC (0 to infinity) in dog; type: ADME, organism-based, Canis lupus familiaris; parameters: time infinity; concentration or dose not given beside the values; settings: plasma
# [8] = Cmax in dog; type: ADME, organism-based, Canis lupus familiaris; settings: in vivo
# [9] = Oral bioavailability in rat; type: ADME, organism-based; settings: in vivo
# [10] = Volume of distribution at steady state in dog at 5 umol/kg, iv; type: ADME, organism-based, Canis lupus familiaris; settings: in vivo, read-out: Vdss
# [11] = Oral bioavailability in dog; type: ADME, organism-based, Canis lupus familiaris; settings: in vivo
# [12] = Clearance in dog at 5 umol/kg, iv; type: ADME, organism-based, Canis lupus familiaris; settings: in vivo
# [13] = AUC (0 to infinity) in rat; type: ADME, organism-based; parameters: time infinity; concentration or dose not given beside the values; settings: plasma
# [14] = Half life in dog at 5 umol/kg, iv; type: ADME, organism-based, Canis lupus familiaris; settings: in vivo
# [15] = Cmax in rat; type: ADME, organism-based; settings: in vivo
Structure (SMILES),IC50 [1],CC50 [2],"fraction unbound at 5 h, 1 µM [3]",further results
CC(CCNC(=O)c1c(Cl)cncc1Cl)N1CCC(N(Cc2ccccc2)c2ccc(C(F)(F)F)cc2)CC1 (stereo unspecified),110 nM,8.1 µM,,
COc1ccc(N(Cc2ccccc2)C2CCN(C(C)CCNC(=O)c3c(Cl)cncc3Cl)CC2)cc1 (stereo unspecified),2170 nM,36.5 µM,,
CC(CCNC(=O)c1c(Cl)cncc1Cl)N1CCC(N(Cc2ccccc2Cl)c2ccc(Br)cc2)CC1 (stereo unspecified),> 1250 nM,5.7 µM,,
CC(CCNC(=O)c1c(Cl)cncc1Cl)N1CCC(N(Cc2ccccc2)c2ccc(OC(F)(F)F)cc2)CC1 (stereo unspecified),59 nM,4 µM,,
COC(=O)c1ccc(N(Cc2ccccc2)C2CCN(C(C)CCNC(=O)c3c(Cl)cncc3Cl)CC2)cc1 (stereo unspecified),177 nM,21.4 µM,,
COc1ccc(N(Cc2cccnc2)C2CCN([C@H](C)CCNC(=O)c3c(C)cc(F)nc3C)CC2)cc1,29.6 nM,> 36.7 µM,0.14,
Cc1ccncc1CN(c1ccccc1)C1CCN([C@H](C)CCNC(=O)c2c(C)cc(C#N)nc2C)CC1,,,0.06,
COc1ccc(N(Cc2cnccc2C)C2CCN([C@H](C)CCNC(=O)c3c(C)cc(F)nc3C)CC2)cc1,2.2 nM,> 36.3 µM,0.21,half-life [4]: 198 min; Vd [5]: 4.6 L/kg; clearance [6]: 16.6 mL/min/kg; AUC(0-inf) [7]: 0.65 µM·h; Cmax [8]: 410 nM; bioavailability [9]: 3%; Vd [10]: 8.3 L/kg; bioavailability [11]: 10%; clearance [12]: 32 mL/min/kg; AUC(0-inf) [13]: 10.9 µM·h; half-life [14]: 180 min; Cmax [15]: 1270 nM
COc1ccc(N(Cc2cnccc2C)C2CCN([C@H](C)CCNC(=O)c3c(C)ccnc3Cl)CC2)cc1,22.3 nM,> 37.7 µM,0.12,half-life [4]: 180 min; Vd [5]: 15.4 L/kg; clearance [6]: 58.7 mL/min/kg; AUC(0-inf) [7]: 0.2 µM·h; Cmax [8]: 150 nM; bioavailability [9]: 70%; Vd [10]: 10.3 L/kg; bioavailability [11]: 4%; clearance [12]: 36.5 mL/min/kg; AUC(0-inf) [13]: 18.3 µM·h; half-life [14]: 198 min; Cmax [15]: 3110 nM
CC(CCNC(=O)c1c(Cl)cncc1Cl)N1CCC(N(Cc2ccc(Cl)cc2)c2ccc(Br)cc2)CC1 (stereo unspecified),> 1300 nM,4.3 µM,,
COc1ccc(N(Cc2cccc(C#N)n2)C2CCN([C@H](C)CCNC(=O)c3c(C)cc(C#N)nc3C)CC2)cc1,3.9 nM,> 36.3 µM,0.09,
COc1ccc(N(Cc2cnccc2C)C2CCN([C@H](C)CCNC(=O)c3c(C)cncc3C)CC2)cc1,11500 nM,> 38.8 µM,,
COCCOc1ccc(N(Cc2cnccc2C)C2CCN([C@H](C)CCNC(=O)c3c(C)cc(C#N)nc3C)CC2)cc1,32.3 nM,> 32.6 µM,0.08,
Cc1ccncc1CN(c1ccc([S+](C)[O-])cc1)C1CCN([C@H](C)CCNC(=O)c2c(C)ncnc2C)CC1 (stereo partly specified),> 32100 nM,> 32.4 µM,,
CC(CCNC(=O)c1c(Cl)cncc1Cl)N1CCC(N(Cc2ccccc2)c2ccc(Br)cc2)CC1 (stereo unspecified),220 nM,,,
CC(CCNC(=O)c1c(Cl)cncc1Cl)N1CCC(N(Cc2cccc(C#N)c2)c2ccc(Br)cc2)CC1 (stereo unspecified),89 nM,6.7 µM,,
CC(CCNC(=O)c1c(Cl)cncc1Cl)N1CCC(N(Cc2cccc(C#N)c2)c2ccc(C#N)cc2)CC1 (stereo unspecified),376 nM,33.6 µM,,

Structure (SMILES),IC50 [1],CC50 [2],"fraction unbound at 5 h, 1 µM [3]",further results
Cc1ccncc1CN(c1ccc(OCC(N)=O)cc1)C1CCN([C@H](C)CCNC(=O)c2c(C)cc(C#N)nc2C)CC1,3.3 nM,> 34.3 µM,0.11,
COc1ccc(N(Cc2cccc(C#N)c2)C2CCN(C(C)CCNC(=O)c3c(Cl)cncc3Cl)CC2)cc1 (stereo unspecified),14 nM,> 1.76 µM,,
COc1ccc(N(Cc2cnccc2C)C2CCN([C@H](C)CCNC(=O)c3c(C)cc(C(=O)NC(C)C)nc3C)CC2)cc1,0.96 nM,> 32.8 µM,0.11,AUC(0-inf) [7]: 0.48 µM·h; Cmax [8]: 920 nM; Vd [10]: 5.2 L/kg; bioavailability [11]: 5%; clearance [12]: 21.1 mL/min/kg; half-life [14]: 168 min
CC(CCNC(=O)c1c(Cl)cncc1Cl)N1CCC(N(Cc2cccc(C#N)c2)c2ccc(C(F)(F)F)cc2)CC1 (stereo unspecified),1 nM,12.3 µM,,
COc1cccc(CN(c2ccc(Br)cc2)C2CCN(C(C)CCNC(=O)c3c(Cl)cncc3Cl)CC2)c1 (stereo unspecified),2880 nM,6.4 µM,,
COc1ccc(N(Cc2cnccc2C)C2CCN([C@H](C)CCNC(=O)c3c(C)cc(C#N)nc3C)CC2)cc1,25.4 nM,> 34.8 µM,0.02,
CC(CCNC(=O)c1c(Cl)cncc1Cl)N1CCC(N(Cc2ccccc2)c2ccc(C#N)cc2)CC1 (stereo unspecified),380 nM,9.7 µM,,
COc1ccc(N(Cc2cccc(C#N)n2)C2CCN([C@H](C)CCNC(=O)c3c(C)cc(Cl)nc3C)CC2)cc1,3.5 nM,> 35.1 µM,0.16,AUC(0-inf) [7]: 0.72 µM·h; Cmax [8]: 520 nM; Vd [10]: 3 L/kg; bioavailability [11]: 15%; clearance [12]: 42.7 mL/min/kg; half-life [14]: 48 min
COc1ccc(N(Cc2cccc(C#N)n2)C2CCN([C@H](C)CCNC(=O)c3c(C)cc(F)nc3C)CC2)cc1,3.6 nM,> 35.8 µM,0.21,
CC(CCNC(=O)c1c(Cl)cncc1Cl)N1CCC(N(Cc2cccc(Cl)c2)c2ccc(Br)cc2)CC1 (stereo unspecified),400 nM,7.3 µM,,
COCCOc1ccc(N(Cc2cnccc2C)C2CCN([C@H](C)CCNC(=O)c3c(C)cc(Cl)nc3C)CC2)cc1,2 nM,> 32.7 µM,0.15,half-life [4]: 102 min; Vd [5]: 9.2 L/kg; clearance [6]: 61.2 mL/min/kg; AUC(0-inf) [7]: 0.02 µM·h; Cmax [8]: 10 nM; bioavailability [9]: 27%; Vd [10]: 4.9 L/kg; bioavailability [11]: < 1%; clearance [12]: 157 mL/min/kg; AUC(0-inf) [13]: 7.18 µM·h; half-life [14]: 78 min; Cmax [15]: 1070 nM
CC(CCNC(=O)c1c(Cl)cncc1Cl)N1CCC(N(Cc2ccccc2)c2ccc(Oc3ccc(C(=O)O)cc3)cc2)CC1 (stereo unspecified),96 nM,22.1 µM,< 0.001,half-life [4]: 288 min; Vd [5]: 4.2 L/kg; clearance [6]: 30 mL/min/kg; AUC(0-inf) [7]: 14.5 µM·h; Cmax [8]: 11200 nM; bioavailability [9]: 16%; Vd [10]: 0.4 L/kg; bioavailability [11]: 35%; clearance [12]: 5 mL/min/kg; AUC(0-inf) [13]: 9.07 µM·h; half-life [14]: 90 min; Cmax [15]: 2790 nM
COCCOc1ccc(N(Cc2cnccc2C)C2CCN([C@H](C)CCNC(=O)c3c(C)cc(F)nc3C)CC2)cc1,23.1 nM,> 32.7 µM,0.19,
CC(CCNC(=O)c1c(Cl)cncc1Cl)N1CCC(N(Cc2cccc(C#N)c2)c2ccc(OC(F)(F)F)cc2)CC1 (stereo unspecified),2 nM,6 µM,< 0.001,half-life [4]: 300 min; Vd [5]: 23.7 L/kg; clearance [6]: 132 mL/min/kg; AUC(0-inf) [7]: 5.11 µM·h; Cmax [8]: 750 nM; bioavailability [9]: 57%; Vd [10]: 6 L/kg; bioavailability [11]: 36%; clearance [12]: 15 mL/min/kg; AUC(0-inf) [13]: 7.3 µM·h; half-life [14]: 324 min; Cmax [15]: 530 nM
CC(CCNC(=O)c1c(Cl)cncc1Cl)N1CCC(N(Cc2ccccc2)c2ccc(C(=O)N(C)C)cc2)CC1 (stereo unspecified),9630 nM,> 30 µM,,
COc1ccc(N(Cc2cnccc2C)C2CCN([C@H](C)CCNC(=O)c3c(C)ccnc3C)CC2)cc1,1040 nM,> 38.9 µM,0.05,

# From ChEMBL document CHEMBL1926604, “Design and synthesis of pyridin-2-ylmethylaminopiperidin-1-ylbutyl amide CCR5 antagonists that are potent inhibitors of M-tropic (R5) HIV-1 replication” (Bioorg Med Chem Lett, 2011)
